Experimental data reported in patent US9289003B2, “Use of compounds involved in biosynthesis of nucleic acids as cryoprotective agents” (CHR. HANSEN A/S, priority 2003, dated 2016).
Entries after “also recorded” stand apart in the source; their conditions may differ.

Columns and labels:
bacterial cultures = test: Cryoprotection of bacterial cultures, summary statements of the description; type: cell-based; details: summary of the experiments (examples 12 and 15 cited for adenosine)
[1] = system: F-DVS™ Fl-Da N (frozen LD-culture); test: Acidifying activity assay of frozen concentrated F-DVS Fl-Da N culture stored at −50° C; type: cell-based; details: 3% w/w additive; for reduction in stability of culture without additive relative to culture stabilized by additive / loss of acidification activity of culture without additive: 13 days at −50° C; for reduction in stability of culture without additive relative to culture stabilized by additive: 0.01% inoculum, pH after 6 hrs at 30° C; for loss of acidification activity of culture without additive: corresponds to the pH difference; for ranking as cryoprotective during prolonged storage: storage extended to 21 or 49 days at −50° C
Procedure: In this example the stability measured by the acidification activity of a commercially produced LD-culture: F-DVS™ FI-Da N (Chr. Hansen A/S Item. No. 501691) was followed over a period of 6 months. The culture was produced and stored at −50° C. as described in the Materials and Methods section.
In contrast to what is common the first activity-measurement in this example was performed immediately after the culture were frozen as pellets in liquid nitrogen and followed by measurements after 1, 2, 12, 20 and 188 days of storage at −50° C.
(§1) The additive was added to the concentrate as a 30% sterile solution.
To simulate a situation similar to the industrial situation during the freezing process the additives and concentrates were mixed and stored for 5 hours at 8° C. and subsequently frozen in liquid nitrogen and further stored at −50° C. […] Culture activity in milk (LAB-milk) was measured the same day as the frozen cultures were formulated.
Culture activity in milk (LAB-milk) was measured the same day as the cultures were frozen and the activity was followed periodically up to 13 days.
Experimental details were as described in Example 10, with the exception that the activity was monitored for an extended period of time.

[2] = system: freeze-dried LD-culture of Fl-Da N; test: Acidifying activity assay of freeze-dried Fl-Da N culture (FD-DVS); type: cell-based; details: 3% w/w additive, 0.005% inoculum
Procedure: Frozen culture was inoculated on a 0.01% (w/w) level in 200 ml UHT-sterilized reconstituted skimmed milk (RSM) containing 9.5% (w/w) solid matter and heated at 99° C. for 30 minutes (LAB-milk). The RSM was incubated at 30° C. for 6 h to permit acidification of the substrate material. The acidification activity was measured as described in Example 6: Analytical Procedure QAm-052, “acidification activity—UHT”, Chr. Hansen A/S (Denmark).
as §1
To simulate the situation encountered in the industrial situation during a freezing process, the additives and concentrates were mixed and stored for 5 hours at 8° C. and subsequently frozen in liquid nitrogen and further stored at −50° C. for one day before freeze-drying. After freeze-drying was completed the culture was stored at −50° C. until analysis. […] Culture activity in milk (LAB-rnilk) was measured after 7 days of storage at −50° C.
This example describes the stability of freeze-dried LDultures (FD-DVS) of Fl-Da-N formulated with and without a number of different additives, which may act as cryprotective agents. In the experiments the.concentration of the various additives were 3% w/w per gram concentrated biomass unless other vice indicated in the figures.
After fermentation, biomass was harvested and concentrated via centrifugation from fermentation broth of Fl-Da N as described in the Materials and Method section. The cell concentrate was divided into a number of portions and was added to each of the portions. To simulate the situation encountered in the industrial situation during a freezing process, the additives and concentrates were mixed and stored for 5 hours at 8° C. and subsequently frozen in liquid nitrogen and further stored at −50° C. for one day before freezedrying. After freeze-drying was completed the culture was stored at −50° C. until analysis. […] Culture activity in milk (LAB-milk) was measured by the acidifying activity assay after 1 day and after 2 months of storage at −50° C.

[3] = system: F-DVS™ CH-N 19 (frozen LD-culture); test: Acidifying activity assay of frozen concentrated F-DVS CH-N 19 culture; type: cell-based; details: Example 15; 1 day and 6 days at −50° C; 0,005% w/v inoculum, 6 hrs at 30° C; Na-formate 3% w/w
Procedure: The additives and concentrates were mixed for 30 minutes and subsequently 150 g of the two portions was frozen in liquid nitrogen. […] Culture activity in milk (heat sterilized LAB-milk) was measured.
The concentration of the various additives is given in the figures as % w/w per gram concentrated biomass.
Culture activity in milk (LAB-milk) was measured as acidification activity after 1 day (FIG. 13) and 6 days (FIG. 14) of storage at −50° C. The activity assay is based on a 0,005% w/v inoculum and 6 hrs incubation at 30° C.

[4] = system: liquid lactic acid-bacterial starter culture concentrates; details: 3% Na-formate; cited from earlier work

Row | SMILES | effectiveness as cryoprotective agent (bacterial cultures) | effect on activity/stability of frozen culture [3] | effect on stability of freeze-dried culture ([2]; 2 months of storage at −50° C) | also measured
1 | OC[C@H]1O[C@@H](n2cnc3c(O)ncnc32)[C@H](O)[C@@H]1O [Inosine, inosine] | very effective as a cryoprotective agent |  |  | reduction in stability of culture without additive relative to culture stabilized by additive [1]: 0.41 pH units; loss of acidification activity of culture without additive [1]: 60%; ranking as cryoprotective during prolonged storage [1]: better cryoprotective of F-DVS™ FI-Da N than GMP; effect on stability of freeze-dried culture ([2]; one day of storage at −50° C): highly efficient to ensure stability of the culture
2 | Nc1ncnc2c1ncn2[C@@H]1O[C@H](COP(=O)(O)O)[C@@H](O)[C@H]1O [AMP, adenosine-5′-monophosphate] | but not AMP is effective as a cryoprotective agent | harmful to the activity of the culture |  | 
3 | O=c1ccn([C@@H]2O[C@H](COP(=O)(O)O)[C@@H](O)[C@H]2O)c(=O)[nH]1 [UMP, uranosine-5′-monophosphate] |  |  | preferred | 
4 | Nc1ncnc2c1ncn2[C@@H]1O[C@H](CO)[C@@H](O)[C@H]1O [adenosine, reference compound] | appears to decrease the stability of bacterial cultures | harmful to the activity of the culture | harmful to the culture | effect on stability of freeze-dried culture ([2]; one day of storage at −50° C): highly efficient to ensure stability of the culture
5 | Nc1nc2c(ncn2[C@@H]2O[C@H](COP(=O)(O)O)[C@@H](O)[C@H]2O)c(=O)[nH]1 [GMP, guanosine-5′-monophosphate] |  |  |  | reduction in stability of culture without additive relative to culture stabilized by additive [1]: 0,31 pH units; loss of acidification activity of culture without additive [1]: 50%; ranking as cryoprotective during prolonged storage [1]: better that IMP
6 | O=C[O-].[Na+] [Na-formate] |  | detrimental for frozen cultures; also recorded: detrimental to the activity of frozen cultures; also recorded: decrease the storage stability of frozen lactic acid bacterial starter culture |  | effect on storage stability of liquid starter culture concentrates [4]: effective to increase the storage stability of liquid lactic acid-bacterial starter culture concentrates
7 | Nc1ccn([C@@H]2O[C@H](COP(=O)(O)O)[C@@H](O)[C@H]2O)c(=O)n1 [CMP, cytidine-5′-monophosphate] |  |  | preferred | 
